Results from patent publication US10618900B2, “5-aromatic alkynyl substituted benzamide compound and preparation method, pharmaceutical composition, and use thereof” (SHANGHAI INSTITUTE OF MATERIA MEDICA, CHINESE ACADEMY OF …, priority 2015, dated 2020).
Like-named read-outs stand apart in the source and are kept apart here.

Tests used:
[1] = target: mGluR1 (Homo sapiens (Human), UniProt Q13255); assay: mGluR5/1 selectivity test, HEK293/mGluR1 cell line, Fluo-8 calcium; format: cell-based
From the text: Experimental material: HEK293/mGluR5 cell line, HEK293/mGluR1 cell line, Fluo-8 calcium ion fluorescent dye, positive control JNJ16259685

[2] = Pharmacokinetic experiment in rats; format: in vivo; conditions: rat; for bioavailability: gavage 20 mg/kg vs intravenous 10 mg/kg, read-out: F (absolute bioavailability)
Experimental: Six healthy rats weighing 150-200 g were randomly divided into […] (n=3). The rats were given 10 mL/kg ZD043 by gavage and intravenous injection. The dose of gavage was 20 mg/kg, and the dose of intravenous administration was 10 mg/kg. The drug was formulated in DMSO/Tween 80/saline (5:5:90, v/v/v). The rats were fasted for 12 h before testing, and drinked water ad libitum. 2 h after administration, all rats ate together.
Gavage administration: 0, 0.25, 0.5, 1.0, 2.0, 4.0, 6.0, 8.0 and 24 h after administration;
Intravenous administration: 0, 5 min, 0.25, 0.5, 1.0, 2.0, 4.0, 6.0, 8.0 and 24 h after administration;
0.3 mL of blood was collected at the above time points from the rat eye vein venous plexus, placed in heparinized test tube and centrifugated at 11000 rpm for 5 min. Plasma was separated and the sample was frozed in −20° C. refrigerator.

[3] = test system: mice; assay: Mouse tail suspension experiment; format: in vivo; conditions: 20 mg/kg dose, within 6 min, FIG. 1
From the text: Experimental principle: Tail Suspension Test (TST) is a classic method which can quickly evaluate the efficacy of antidepressant drugs, excitement drugs, and sedative drugs. The principle is to use the status that the mouse give up struggle and enter the unique depression status after the tail was suspended and the attempt to escape was failed.
Experimental method: 20-24 g male mice were selected and the site at 2 cm part from the end of the tail was attached to a horizontal stick, so that the animal entered inverted state, and it's head was about 5 cm from the table, and boards were hung on both sides to separate the animal's sight. The immobility time of the administration group and the control group within 6 min were compared.

[4] = Determination of brain tissue content in rats; format: in vivo; conditions: rat
Experimental: Six healthy rats weighing 150-200 g were randomly divided into […] (n=3). The rats were given 10 mL/kg by gavage and intravenous injection, and the dose of gavage was 20 mg/kg, and the dose of intravenous administration was 10 mg/kg. The drug was formulated in DMSO/Tween 80/saline (5:5:90, v/v/v). The rats were fasted for 12 h before testing, and drinked water ad libitum. 2 h after administration, all rats ate together. […]
A physiological saline solution was added (1:10, weight:volume) and the mixture was sufficiently homogenized to form a homogenate. 100 uL homogenate was taken, and 300 uL dichloromethane:methanol (3:2) solution was added, mixed uniformly through vortex oscillation and centrifugated at 14000 rpm for 10 min. The clear liquor was taken. The sample was dried with nitrogen and stored in the 4° C. refrigerator.

[5] = test system: Fmr1 knockout mice; assay: Audiogenic epilepsy induced animal model of Fmr1 knockout mice; format: in vivo; conditions: for Seizure level: level 0-4
Experimental: In this study, we used audiogenic epilepsy induced animal model of Fmr1 knockout mice, and evaluated the efficacy of compound ZD043 with epilepsy seizure latency, seizure level and epileptic mortality as evaluation indexes.
Species, strain: Fmr1 knockout mice, FVB.129P2-Pde6b^+ Tyr^c-ch Fmr1^tm1Cgr/J (strain number 004624)
Test reagent and preparation method: before the experiment, 2.0 mg ZD043 was weighed in 2 mL centrifuge tube, 10 uL DMSO was taken with a precise pipette to dissolve ZD043 powder, then 10 uL Tween80 was added, mixed and 980 uL of saline was added, well mixed to form a suspension liquid.
Methods: The mice were weighed on the day of the experiment. The mice were injected intraperitoneally into 19 to 22 days Fmr1 knockout mice respectively according to the experimental design group 30 minutes before the convulsive test. The mice to be tested were transferred to a sonic seizure test laboratory, placed in a transparent organic glass bucket, and a high-decibel siren loudspeaker was fixed on the top of organic glass bucket. Before delivering the stimulate sound, the mouse was allowed to explore freely for 1 minute, then turn on the loudspeaker, video recorded for the whole process by surveillance system, sound stimulated (≥120 dB) for 3 minutes, or stop after the animal was died, and the experiment was ended.
Test method: After the end of the experiment, the epilepsy seizure latency (2 grade appearance was regarded as seizures, and the longest latency period was recorded as 300 seconds if no epilepsy was observed) and seizure level (Level 0: no epileptic response; Level 1: rapid running and continuous jump; Level 2: paroxysmal epilepsy; Level 3: tonic epilepsy; Level 4: death) were analyzed according to video record.
Data processing: calculate the mean and standard error of the epilepsy seizure latency and seizure level as well as the percentage of epilepsy death of each group.

[6] = test system: mice; assay: Head twitches test (5-HTP induced); format: in vivo; conditions: 20 mg/kg, intraperitoneal, in 6 min, FIG. 2
From the text: Experimental principle: Model Head Thrust Test (HTT) is first raised by Corne et al. in 1963, head twitches syndrome caused by 5-HT receptor excitement may be mediated through the 5-HT2 receptor. The head twitches behavior induced by 5-HTP in mice is more sensitive to antidepressants with different action mechanisms, such as citalopram, fluvoxamine and other 5-HT retake inhibitors, desipramine, maprotiline, nomifensine and other NA retake inhibitors and imipramine acting on both 5-HT and NA system.
Experimental method: 20-24 g male mice were selected. 3 h before the test, 100 mg/kg pargyline was intraperitoneal injected and then intraperitoneal injected with test drugs or saline. 5-HTP (5 mg/kg, ip) was injected 30 min later. After 10 min, the observation was started and the number of mice head twitches in 6 min was recorded. The numbers of the head twitches of experimental group and the saline control group were compared.

Sequence of mGluR1 (Q13255 19-1194): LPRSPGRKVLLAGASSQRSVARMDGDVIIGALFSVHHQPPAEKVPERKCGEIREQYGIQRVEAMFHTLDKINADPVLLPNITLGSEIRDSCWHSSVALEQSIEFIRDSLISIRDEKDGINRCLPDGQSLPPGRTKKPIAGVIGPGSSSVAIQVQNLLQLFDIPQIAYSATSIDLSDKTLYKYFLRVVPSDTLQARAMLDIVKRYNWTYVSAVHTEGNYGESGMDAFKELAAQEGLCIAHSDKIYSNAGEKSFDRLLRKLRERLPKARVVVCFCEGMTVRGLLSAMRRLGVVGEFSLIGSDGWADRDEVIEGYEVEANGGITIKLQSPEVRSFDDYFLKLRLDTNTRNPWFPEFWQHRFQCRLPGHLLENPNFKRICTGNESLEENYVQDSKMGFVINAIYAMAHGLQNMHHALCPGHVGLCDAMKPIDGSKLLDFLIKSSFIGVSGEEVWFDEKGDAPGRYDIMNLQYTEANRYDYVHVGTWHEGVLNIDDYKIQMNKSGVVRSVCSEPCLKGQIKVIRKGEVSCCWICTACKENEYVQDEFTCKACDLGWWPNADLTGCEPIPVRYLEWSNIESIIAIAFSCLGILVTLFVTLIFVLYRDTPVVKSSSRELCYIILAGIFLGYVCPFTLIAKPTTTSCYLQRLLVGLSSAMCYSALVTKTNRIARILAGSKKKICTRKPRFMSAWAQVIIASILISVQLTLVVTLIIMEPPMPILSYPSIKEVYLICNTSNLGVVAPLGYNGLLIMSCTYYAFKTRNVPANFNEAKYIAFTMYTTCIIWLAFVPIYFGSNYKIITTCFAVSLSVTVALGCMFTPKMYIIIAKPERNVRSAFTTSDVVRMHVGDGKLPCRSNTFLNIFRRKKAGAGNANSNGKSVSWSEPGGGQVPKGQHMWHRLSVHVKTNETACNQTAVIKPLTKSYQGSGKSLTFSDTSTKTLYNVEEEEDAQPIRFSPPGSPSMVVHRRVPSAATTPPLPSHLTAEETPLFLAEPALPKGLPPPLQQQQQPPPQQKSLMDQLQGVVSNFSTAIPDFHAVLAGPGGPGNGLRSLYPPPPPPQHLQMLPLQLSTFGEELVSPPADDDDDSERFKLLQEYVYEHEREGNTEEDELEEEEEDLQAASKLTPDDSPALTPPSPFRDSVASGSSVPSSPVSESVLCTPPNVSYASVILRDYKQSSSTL

## Cc1nc(C#Cc2ccc(F)c(C(=O)Nc3cccnc3)c2)cs1 [ZD043]
[1]; HEK293/mGluR1 cell line
  IC50: > 100 µM
[1]; selectivity ratio of IC50 values
  mGluR5/mGluR1: >17854
[2]; plasma, intravenous, vein 10 mg/kg, read-out: AUC0-t
  AUC(0-t): 66400 ng·h/mL
[2]; plasma, iv, vein 10 mg/kg
  AUC(0-inf): 66400 ng·h/mL
  Cmax: 75400 ng/mL
  MRT: 37.2 min
  Tmax: 4.98 min
[2]; plasma, iv, vein 10 mg/kg, read-out: AUC0-t
  AUC(0-t): 66400 ng·h/mL
[2]; plasma, oral
  bioavailability: 31.6%
[2]; plasma, po, gavage 20 mg/kg
  AUC(0-inf): 10500 ng·h/mL
  Cmax: 7120 ng/mL
  MRT: 63.6 min
  Tmax: 15 min
[2]; plasma, po
  bioavailability: 31.6%
[2]; plasma, po, gavage 20 mg/kg, read-out: AUC0-t
  AUC(0-t): 10500 ng·h/mL
[2]; gavage 20 mg/kg
  AUC(0-t): 10491.2 ng·h/mL
  t1/2: 1.30 h
[2]; plasma, iv, 10 mg/kg, vein 10 mg/kg
  half-life: 25.8 min
[2]; plasma, po, 20 mg/kg, gavage 20 mg/kg
  half-life: 78.1 min
[3]
  immobility time in the mouse tail suspension test: significantly reduced
[4]; cerebrospinal fluid, sampling time 0.25 h, read-out: Cerebrospinal fluid
  concentration at 0.25 h: 25.5 ng/mL
[4]; cerebrospinal fluid, sampling time 1 h, read-out: Cerebrospinal fluid
  concentration at 1 h: 21.3 ng/mL
[4]; cerebrospinal fluid, sampling time 3 h, read-out: Cerebrospinal fluid
  concentration at 3 h: 7.99 ng/mL
[4]; plasma, sampling time 0.25 h, read-out: Plasma
  concentration at 0.25 h: 1240 ng/mL
[4]; plasma, sampling time 1 h, read-out: Plasma
  concentration at 1 h: 1130 ng/mL
[4]; plasma, sampling time 3 h, read-out: Plasma
  concentration at 3 h: 358 ng/mL
[4]; after administration
  drug concentration ratio in the brain and plasma: 1/2
[4]; sampling time 0.25 h
  B/P: 1/2
[4]; sampling time 0.25 h, read-out: brain
  concentration at 0.25 h: 589 ng/g
[4]; sampling time 1 h
  B/P: 1/2
  Csf/P: 1/53
[4]; sampling time 1 h, read-out: brain
  concentration at 1 h: 559 ng/g
[4]; sampling time 3 h
  Csf/P: 1/45
[4]; sampling time 3 h, read-out: brain
  concentration at 3 h: 164 ng/g
[5]; 10 mg/kg intraperitoneal
  Mortality (%): 25%
  Seizure level: 1.4
[5]; 10 mg/kg intraperitoneal, single injection, 30 min before test
  Latency: 133.9 s
[5]; 20 mg/kg intraperitoneal
  Latency: 123.1 s
  Mortality (%): 12.5%
  Seizure level: 1.5
[5]; 30 mg/kg intraperitoneal
  Latency: 180 s
  Mortality (%): 0%
  Seizure level: 0
[6]
  number of head twitches: increase
